Here are results for seven compounds from patent publication US8471027B2, “Adamantyl compounds” (Hoffmann-La Roche Inc., priority 2011, dated 2013).

For assay [1], the system named is phospho(Ser63)-c-jun in HK-2 cells. Nature of the assay: Cell-based assay for JNK inhibitors: in-cell ELISA of TNFα-stimulated phospho(Ser63)-c-jun in HK-2 cells. As to conditions: Homo sapiens, 10 ng/mL TNFα, 60 min preincubation with compound. The protocol: Cell-Based Assay for JNK Inhibitors
The cell-based assay employed the in-cell ELISA method to determine the ability of compounds to prevent the generation of phospho(Ser63)-c-jun in HK-2 cells (human proximal tubule cells) in response to stimulation with tumor necrosis factor α (TNFα). In brief, for quantification of phospho(Ser63)-c-jun, the cells (in 96-well format) were fixed and permeablized then incubated sequentially with a rabbit anti-phospho-c-jun First Antibody specific for the presence of the phospho-Ser63 epitope and a donkey anti-rabbit IgG Second Antibody linked to horseradish peroxidase (HRP) for colorimetric quantitation of binding. For determination of non-specific binding of the First Antibody, Blank wells were preincubated with a mouse anti-phospho(Ser63)-c-jun Blocking Antibody that prevented specific binding of the First Antibody to the phospho-Ser63 epitope, but which was not recognized by the donkey anti-rabbit IgG Second Antibody. […] Blank wells received no TNFα stimulation or compound. Additional Control wells received TNFα stimulation, but no compound. The signal obtained in this case was considered the value for 0% inhibition (Control value).
Stock cultures of HK-2 cells (ATCC, Manassas, Va.) were grown under a 5% CO2/[…] atmosphere at 37 degrees C. in Keratinocyte-SFM medium (KSFM, Invitrogen, Grand Island, N.Y.) containing 5 μg/L epidermal growth factor and 5 mg/L bovine pituitary extract (both supplied with the medium), additionally supplemented with 10% (v/v) fetal calf serum (FCS; Invitrogen, Grand Island, N.Y.) and 1% (v/v) antibiotic-antimycotic (ABAM: Sigma, St. Louis, Mo.). For assays, cells were seeded in collagen coated 96-well polystyrene plates (BD Biosciences, Franklin Lakes, N.J.) at a density of 40,000 cells/well and cultured for 24 h in the same medium (100 μL/well) followed by a further 16-24 h in 100 μL of similar medium, but without FCS. […] Cells were incubated for a further 30 minutes and then the medium was aspirated and the wells washed with 100 μL/well PBS followed by the addition of 100 μL 3.7% (v/v) Formaldehyde (Fisher Scientific, Fair Lawn, N.J.) in PBS. Plates were then allowed to stand at room temperature for 20 minutes before being washed with 200 μL/well of PBS. (Further steps were performed immediately or the plates were stored at 4 degrees C. and the assay completed the next day.) To each well was added 100 μL 1% (v/v) TritonX-100 (Sigma, St. Louis, Mo.) in PBS followed by 20 minutes standing at room temperature, washing with 200 μL/well PBS, the addition of 100 μL/well of Quenching buffer (1% (v/v) hydrogen peroxide (Sigma, St. Louis, Mo.) and 0.1% (w/v) sodium azide (Fisher Scientific, Fair Lawn, N.J.)) in PBS and a further 20 minutes at room temperature. Plates were then washed twice with 200 μL/well of 0.1% (v/v) Tween-20 (Teknova, Hollister, Calif.) in PBS before addition of 200 μL/well of 2% BSA/0.10% Tween-20 in PBS and a further 1 hour at room temperature. At this time, buffer was removed from Blank wells and replaced with 90 μL/well of mouse anti-phospho-c-jun-Ser63 (BD Bioscience, 558036) diluted 1:4000 in PBS containing 1% BSA/0.1% Tween-20 (Antibody Dilution Buffer). All other wells are replaced with 90 μL/well of rabbit anti-phospho-c-jun-Ser63 (Cell Signaling, 9261) diluted 1:250 in Antibody Dilution Buffer. After a further one hour, rabbit anti-phospho-c-jun-Ser63 is added directly to the solution in the Blank wells resulting in 1:250 dilution of this antibody. Plates were then placed on a slowly rotating platform at 4 degrees C. overnight. Wells were then washed thrice with 200 μL/well PBS/0.1% Tween-20. After addition of the third wash, the plates were placed on a slowly rotating platform for 15 minutes at room temperature. […]
A general note: In an ELISA, binding on a coated surface is turned into a signal by an enzyme label.

In the next assay the target is JNK1 (Homo sapiens, UniProt P45983). Nature of the assay: In vitro JNK1 Assay (TR-FRET, phosphorylation of GST-c-Jun). It is filed as biochemical. As to conditions: 0.2 nM JNK1, 26.7 nM GST-c-Jun, 2 μM ATP. The protocol:
Phosphorylation of GST-c-Jun protein (amino acid residues 1-79) was measured as JNK1 activity. […] The reaction buffer contained 50 mM HEPES, pH 7.0, 10 mM MgCl2, 1 mM DTT, 0.1 mM Na3 VO4 and 0.2 mg/mL BSA. After 30 min. incubation at room temperature, the reaction was terminated by adding buffer containing 8 mM EDTA and a polyclonal anti-phospho-c-Jun antibody (Cell Signaling #9261L), followed by an additional incubation of 30 min. at room temperature. […] Time-resolved Fluorescence Resonance Energy Transfer (TR-FRET) signals were measured 1 hr. later on the EnVision reader (Perkin Elmer). Compound potency was assessed at 10 serially diluted concentrations. Percentage of inhibition at each concentration was determined to generate an IC50 value for each compound.

Each structure is given as a SMILES string.

Chain of JNK1 (P45983 whole entry, species assumed, the tested form may be a part): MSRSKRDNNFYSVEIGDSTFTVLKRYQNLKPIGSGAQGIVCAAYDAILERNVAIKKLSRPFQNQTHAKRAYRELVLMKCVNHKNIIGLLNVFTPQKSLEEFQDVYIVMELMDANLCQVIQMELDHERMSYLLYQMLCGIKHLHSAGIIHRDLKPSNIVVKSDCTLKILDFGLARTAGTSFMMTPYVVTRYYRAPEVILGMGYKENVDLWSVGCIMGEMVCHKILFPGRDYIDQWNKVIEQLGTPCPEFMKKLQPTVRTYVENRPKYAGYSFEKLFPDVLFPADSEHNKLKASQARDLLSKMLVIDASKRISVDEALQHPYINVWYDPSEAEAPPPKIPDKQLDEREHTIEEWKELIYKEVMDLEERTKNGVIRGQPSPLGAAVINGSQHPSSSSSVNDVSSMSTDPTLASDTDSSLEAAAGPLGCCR

`COC(=O)c1c(Cc2ccc(C(=O)N[C@@H]3[C@@H]4C[C@@H]5C[C@H]3C[C@@](NCC(C)(C)O)(C5)C4)cc2)c(=O)c2ccc(Cl)cc2n1-c1ccccc1` [Compound I-16, rel-7-Chloro-3-{4-[(1S,2S,3R,5S,7S)-5-(2-hydroxy-2-methyl-propylamino)-adamantan-2-ylcarbamoyl]-benzyl}-4-oxo-1-phenyl-1,4-dihydro-quinoline-2-carboxylic acid methyl ester]: the EC50 (commonly the concentration at which the effect is half-maximal) in assay [1] is 1.9 µM. Besides, the IC50 (commonly the point on the concentration scale where inhibition reaches its midpoint) at JNK1 is 10 nM.

For `COC(=O)c1c(Cc2ccc(C(=O)N[C@@H]3[C@@H]4C[C@@H]5C[C@H]3C[C@@](NC(C)=O)(C5)C4)cc2)c(=O)c2cccnc2n1-c1ccccc1` [Compound I-17, rel-3-[4-((1S,2S,3R,5S,7S)-5-Acetylamino-adamantan-2-ylcarbamoyl)-benzyl]-4-oxo-1-phenyl-1,4-dihydro-[1,8]naphthyridine-2-carboxylic acid methyl ester], the EC50 in assay [1] amounted to 3.1 µM. This compound also showed an IC50 against JNK1 of 26 nM.

Regarding `COC(=O)c1c(Cc2ccc(C(=O)N[C@@H]3[C@@H]4C[C@@H]5C[C@H]3C[C@@](NS(=O)(=O)C3CC3)(C5)C4)cc2)c(=O)c2cccnc2n1-c1ccccc1` [Compound I-18, rel-3-[4-((1S,2S,3R,5S,7S)-5-Cyclopropanesulfonylamino-adamantan-2-ylcarbamoyl)-benzyl]-4-oxo-1-phenyl-1,4-dihydro-[1,8]naphthyridine-2-carboxylic acid methyl ester], the EC50 in assay [1] amounted to 1.8 µM. Half-maximal inhibition against JNK1 (IC50) required 5 nM.

For the compound `COC(=O)c1c(Cc2ccc(C(=O)N[C@@H]3[C@@H]4C[C@@H]5C[C@H]3C[C@@](NS(C)(=O)=O)(C5)C4)cc2)c(=O)c2cccnc2n1-c1ccccc1` [Compound I-19, rel-3-[4-((1S,2S,3R,5S,7S)-5-Methanesulfonylamino-adamantan-2-ylcarbamoyl)-benzyl]-4-oxo-1-phenyl-1,4-dihydro-[1,8]naphthyridine-2-carboxylic acid methyl ester], in assay [1], the EC50 came out at 2.1 µM. The compound further gave an IC50 against JNK1 of 11 nM.

Consider `COC(=O)c1c(Cc2ccc(C(=O)N[C@@H]3[C@@H]4C[C@@H]5C[C@H]3C[C@@](NC(=O)C(C)(C)C)(C5)C4)cc2)c(=O)c2cccnc2n1-c1ccccc1` [Compound I-20, rel-3-{4-[(1S,2S,3R,5S,7S)-5-(2,2-Dimethyl-propionylamino)-adamantan-2-ylcarbamoyl]-benzyl}-4-oxo-1-phenyl-1,4-dihydro-[1,8]naphthyridine-2-carboxylic acid methyl ester], for which, in assay [1], the EC50 came to 5.3 µM. Also, 39 nM corresponded to half-maximal inhibition against JNK1 (IC50).

For `COC(=O)c1c(Cc2ccc(C(=O)N[C@@H]3[C@@H]4C[C@@H]5C[C@H]3C[C@@](NC(=O)C(C)(C)OC(C)=O)(C5)C4)cc2)c(=O)c2cccnc2n1-c1ccccc1` [Compound I-21, rel-3-{4-[(1S,2S,3R,5S,7S)-5-(2-Acetoxy-2-methyl-propionylamino)-adamantan-2-ylcarbamoyl]-benzyl}-4-oxo-1-phenyl-1,4-dihydro-[1,8]naphthyridine-2-carboxylic acid methyl ester], the EC50 in assay [1] stood at 4.8 µM. On JNK1, this compound came in with an IC50 of 25 nM.

For `COC(=O)c1c(Cc2ccc(C(=O)N[C@@H]3[C@@H]4C[C@@H]5C[C@H]3C[C@@](NC(=O)C(C)(C)O)(C5)C4)cc2)c(=O)c2cccnc2n1-c1ccccc1` [Compound I-22, rel-3-{4-[(1S,2S,3R,5S,7S)-5-(2-Hydroxy-2-methyl-propionylamino)-adamantan-2-ylcarbamoyl]-benzyl}-4-oxo-1-phenyl-1,4-dihydro-[1,8]naphthyridine-2-carboxylic acid methyl ester], in assay [1], the EC50 was determined as 4.1 µM. Besides, the IC50 against JNK1 was determined as 22 nM.
